The source of these data is US7579356B2, “Thia-tetraazaacenaphthylene kinase inhibitors” (Janssen Pharmaceutica NV, priority 2005, dated 2009).

Usually IC50 stands for the concentration needed to halve the response being measured. By inhibition is commonly meant the change of the read-out against control, counted positive when it falls.

SMILES strings stand for the structures. Some results are limits rather than exact numbers.

One experiment has as its target T1, HER-2 (Homo sapiens, UniProt P04626).
T1 construct: His6 with thrombin site (N); purchased Proqinase (Freiburg, Germany)
Briefly: HER-2 Kinase Assay. Type of experiment: biochemical. To be noted: for IC50: value in parentheses; for inhibition at 1 µM: test concentration of 1 μM. Here is the method: The HER-2 kinase used was purified at Proqinase (Freiburg, Germany) from a construct that consisted of a fusion of GST (Glutathione-S-Transferase), HIS6-Thrombin and the nucleotides encoding amino acids 679 to 1255 of HER-2 (Accession Number M11730).
A mixture of a 10× kinase reaction buffer (600 mM Hepes at pH 7.5, 30 mM Magnesium Chloride, 0.03 mM Sodium Vanadate and 500 μg/mL PEG 20,000), DTT (1.2 mM final from a 10 mM stock), APT (1 μM from a 10 mM stock), biotinylated polyGluTyr (1.5 ng/μL final from stock of 1 μg/μL) prepared by Upstate Biotechnologies, Lake Placid, N.Y.), Manganese Chloride (3 mM final from a 1 M stock), γ-^33P-ATP (10 μCl/μL stock) and water (70 μL/well) was added to each well of a Streptavidin Flashplate (Cat. # SMP103, NEN, Boston, Mass.).
Test compound stock (1 μL) was added to the appropriate wells. Diluted GSTHER2 kinase (6.7 ng/μL diluted into 50 mM Tris-HCl at pH 8.0 and 0.1% bovine serum albumin) (30 μL) was added (total volume of 200 ng/well) to initiate the reactions.
The reaction plates were incubated at 30° C. for 1 hr. The reaction was terminated by aspirating the reaction mixture from the plate wells and washing the wells three times with a 1×PBS stop buffer (300 μL) and 100 mM EDTA. After the final wash, the same stop buffer (200 μL) was again added to the wells. The plates were then sealed and read on the TopCount scintillation counter.
The Her-2 inhibition values were derived according to the procedure described in Example 164 and are shown as percent in Table 4 at a test concentration of 1 μM. For those compounds with an IC50, the IC50 value in μM is shown in parentheses. For compounds with multiple test values, each value represents a separate assay result.

The target of the next experiment is T2, EGFR (Homo sapiens, UniProt P00533).
T2 construct: The intracellular portion of EGFR started at nucleotide 2189 (corresponding to amino acid 667) and ended at the termination codon; made in house; host or cells: Sf9 insect cells (baculovirus)
T2 sequence (P00533 669-1210 limits assumed): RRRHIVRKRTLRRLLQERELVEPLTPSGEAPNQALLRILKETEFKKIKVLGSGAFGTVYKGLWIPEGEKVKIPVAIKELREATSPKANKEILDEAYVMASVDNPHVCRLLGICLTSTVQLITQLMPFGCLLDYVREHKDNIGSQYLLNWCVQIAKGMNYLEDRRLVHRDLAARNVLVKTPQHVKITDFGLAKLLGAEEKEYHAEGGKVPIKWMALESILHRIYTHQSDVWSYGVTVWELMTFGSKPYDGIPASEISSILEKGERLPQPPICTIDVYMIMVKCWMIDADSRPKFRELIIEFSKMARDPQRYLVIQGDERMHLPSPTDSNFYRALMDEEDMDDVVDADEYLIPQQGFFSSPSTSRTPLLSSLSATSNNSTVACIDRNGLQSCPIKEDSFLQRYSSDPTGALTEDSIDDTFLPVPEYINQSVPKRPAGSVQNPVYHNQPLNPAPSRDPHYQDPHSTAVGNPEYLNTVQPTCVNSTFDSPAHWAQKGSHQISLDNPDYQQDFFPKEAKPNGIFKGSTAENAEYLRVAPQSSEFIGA
Nature of the experiment: EGFR Kinase Assay. Type of experiment: biochemical. As to conditions: for IC50: GST-EGFR, ATP 5 μM; for inhibition at 2 µM: test concentration of 2 μM, compounds without an IC50, read-out: EGFR inhibition in percent. The method, boiled down: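 GST-fused human EGFR intracellular domain (from aa 667), Sf9-expressed, phosphorylated biotinylated polyGluTyr with 5 μM ATP plus γ-33P ATP in Tris pH 8.0, MgCl2, vanadate, 1 mM DTT, 1 h at 30 °C. Streptavidin Flashplate scintillation read; triplicate 16-point half-log series from 200 uM; IC50 from % inhibition vs log concentration, else % inhibition at 2 μM.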

T1 sequence (P04626 679-1255): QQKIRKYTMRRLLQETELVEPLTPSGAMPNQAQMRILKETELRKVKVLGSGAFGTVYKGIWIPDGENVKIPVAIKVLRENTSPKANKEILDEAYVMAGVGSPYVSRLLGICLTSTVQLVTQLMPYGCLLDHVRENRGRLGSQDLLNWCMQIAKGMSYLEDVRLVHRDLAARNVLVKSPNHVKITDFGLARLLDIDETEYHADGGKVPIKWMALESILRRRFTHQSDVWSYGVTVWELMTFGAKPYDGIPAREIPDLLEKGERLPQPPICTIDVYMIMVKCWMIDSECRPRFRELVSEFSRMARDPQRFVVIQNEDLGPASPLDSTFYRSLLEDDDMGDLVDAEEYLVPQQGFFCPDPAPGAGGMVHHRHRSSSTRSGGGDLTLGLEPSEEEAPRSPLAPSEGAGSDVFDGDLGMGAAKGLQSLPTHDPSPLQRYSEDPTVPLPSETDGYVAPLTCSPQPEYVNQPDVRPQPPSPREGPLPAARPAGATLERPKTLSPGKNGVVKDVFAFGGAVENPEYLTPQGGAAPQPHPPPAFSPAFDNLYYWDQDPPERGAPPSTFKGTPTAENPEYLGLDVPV

For `CN1CCC(NC(=O)c2sc3ncnc4c3c2NC(=O)N4c2ccc3c(cnn3Cc3cccc(F)c3)c2)CC1` [Cpd 177, 5-[1-(3-fluoro-benzyl)-1H-indazol-5-yl]-4-oxo-4,5-dihydro-3H-1-thia-3,5,6,8-tetraaza-acenaphthylene-2-carboxylic acid (1-methyl-piperidin-4-yl)-amide], the results for the half-inhibitory concentration (IC50) on HER-2 and against EGFR were 1500 nM and 75 nM, respectively.
On to `CCOC(=O)C=Cc1ccc(NC(=O)c2sc3ncnc4c3c2NC(=O)N4c2ccc3nc(Cc4cccc(F)c4)[nH]c3c2)cc1` [Cpd 206, 3-[4-({5-[2-(3-fluoro-benzyl)-3H-benzoimidazol-5-yl]-4-oxo-4,5-dihydro-3H-1-thia-3,5,6,8-tetraaza-acenaphthylene-2-carbonyl}-amino)-phenyl]-acrylic acid ethyl ester], for which, at HER-2, the IC50 was about 100000 nM. For the same compound, the inhibition at 2 µM at EGFR was found to be 12%.
Consider `O=C(Nc1ccc(CN2CCOCC2)cc1)c1sc2ncnc3c2c1NC(=O)N3c1ccc(Oc2cccc(F)c2)c(Cl)c1` [Cpd 162, 5-[3-chloro-4-(3-fluoro-phenoxy)-phenyl]-4-oxo-4,5-dihydro-3H-1-thia-3,5,6,8-tetraaza-acenaphthylene-2-carboxylic acid (4-morpholin-4-ylmethyl-phenyl)-amide], for which the IC50 on HER-2 was found to be 82 nM; against EGFR, 26 nM.
On to `CN1CCC(NC(=O)c2sc3ncnc4c3c2NC(=O)N4c2ccc(OCc3cccs3)c(Cl)c2)CC1` [Cpd 230, 5-[3-chloro-4-(thiophen-2-ylmethoxy)-phenyl]-4-oxo-4,5-dihydro-3H-1-thia-3,5,6,8-tetraaza-acenaphthylene-2-carboxylic acid (1-methyl-piperidin-4-yl)-amide], for which the values for the IC50 on HER-2 and on EGFR were 367 nM and 109 nM, respectively.
With `COc1cc(NC(=O)c2sc3ncnc4c3c2NC(=O)N4c2ccc(Oc3cccnc3)cc2)ccc1CN1CCOCC1` [Cpd 236, 4-oxo-5-[4-(pyridin-3-yloxy)-phenyl]-4,5-dihydro-3H-1-thia-3,5,6,8-tetraaza-acenaphthylene-2-carboxylic acid (3-methoxy-4-morpholin-4-ylmethyl-phenyl)-amide], the IC50 on HER-2 came to 454 nM; against EGFR, 108 nM.
Regarding `COc1cc(N2C(=O)Nc3c(C(=O)Nc4ccc(CN5CCOCC5)cc4)sc4ncnc2c34)ccc1Br` [Cpd 84, 5-(4-bromo-3-methoxy-phenyl)-4-oxo-4,5-dihydro-3H-1-thia-3,5,6,8-tetraaza-acenaphthylene-2-carboxylic acid (4-morpholin-4-ylmethyl-phenyl)-amide], the IC50 at HER-2 was determined as 518 nM; against EGFR it was 776 nM.
Taken in the same sequence, the figures for `COc1cc(NC(=O)c2sc3ncnc4c3c2NC(=O)N4c2ccc(Oc3cccc(F)c3)c(Cl)c2)ccc1OCCN1CCCCC1` [Cpd 161, 5-[3-chloro-4-(3-fluoro-phenoxy)-phenyl]-4-oxo-4,5-dihydro-3H-1-thia-3,5,6,8-tetraaza-acenaphthylene-2-carboxylic acid [3-methoxy-4-(2-piperidin-1-yl-ethoxy)-phenyl]-amide] were 699 nM and 23 nM.
As to `CN1CCN(Cc2ccc(NC(=O)c3sc4ncnc5c4c3NC(=O)N5c3cccc(Oc4ccccc4)c3)cc2)CC1` [Cpd 199, 4-oxo-5-(3-phenoxy-phenyl)-4,5-dihydro-3H-1-thia-3,5,6,8-tetraaza-acenaphthylene-2-carboxylic acid [4-(4-methyl-piperazin-1-ylmethyl)-phenyl]-amide], the IC50 on HER-2 is 613 nM; on EGFR, 155 nM.
As for `CCOc1cc(NC(=O)c2sc3ncnc4c3c2NC(=O)N4c2ccc(Oc3ccccc3)cc2)ccc1CN1CCOCC1` [Cpd 207, 4-oxo-5-(4-phenoxy-phenyl)-4,5-dihydro-3H-1-thia-3,5,6,8-tetraaza-acenaphthylene-2-carboxylic acid (3-ethoxy-4-morpholin-4-ylmethyl-phenyl)-amide], the IC50 on HER-2 was found to be 15 nM; against EGFR, 16 nM.
On to `O=C(Nc1ccc(CN2CCCCC2)cc1)c1sc2ncnc3c2c1NC(=O)N3c1ccc(Cl)cc1Cl` [Cpd 25, 5-(2,4-dichloro-phenyl)-4-oxo-4,5-dihydro-3H-1-thia-3,5,6,8-tetraaza-acenaphthylene-2-carboxylic acid (4-piperidin-1-ylmethyl-phenyl)-amide], for which the values for the IC50 on HER-2 and on EGFR were 768 nM and 168 nM, respectively.
Consider `O=C(Nc1ccc(CN2CCCCC2)cc1)c1sc2ncnc3c2c1NC(=O)N3c1ccc2nc(Cc3cccc(F)c3)[nH]c2c1` [Cpd 192, 5-[2-(3-fluoro-benzyl)-3H-benzoimidazol-5-yl]-4-oxo-4,5-dihydro-3H-1-thia-3,5,6,8-tetraaza-acenaphthylene-2-carboxylic acid (4-piperidin-1-ylmethyl-phenyl)-amide], for which the results for the half-inhibitory concentration (IC50) on HER-2 and against EGFR were over 1000 nM and 410 nM, respectively.
The matching figures for `O=C(Nc1ccc(CN2CCOCC2)cc1)c1sc2ncnc3c2c1NC(=O)N3c1ccc(Oc2cccnc2)c(Cl)c1` [Cpd 208, 5-[3-chloro-4-(pyridin-3-yloxy)-phenyl]-4-oxo-4,5-dihydro-3H-1-thia-3,5,6,8-tetraaza-acenaphthylene-2-carboxylic acid (4-morpholin-4-ylmethyl-phenyl)-amide]: 57 nM and 133 nM.
In the case of `O=C(Nc1ccc(CN2CCOCC2)cc1)c1sc2ncnc3c2c1NC(=O)N3c1ccc(Br)cc1` [Cpd 196, 5-(4-bromo-phenyl)-4-oxo-4,5-dihydro-3H-1-thia-3,5,6,8-tetraaza-acenaphthylene-2-carboxylic acid (4-morpholin-4-ylmethyl-phenyl)-amide], the IC50 turned out to be 122 nM on HER-2 and 206 nM against EGFR.
For the compound `CCOC(=O)c1sc2ncnc3c2c1NC(=O)N3c1ccc(NC(=O)c2ccccc2)cc1` [Cpd 241, 5-(4-benzoylamino-phenyl)-4-oxo-4,5-dihydro-3H-1-thia-3,5,6,8-tetraaza-acenaphthylene-2-carboxylic acid ethyl ester], the IC50 at HER-2 was over 100000 nM. Moreover, the inhibition at 2 µM on EGFR is -2%.
Consider `COc1cc(NC(=O)c2sc3ncnc4c3c2NC(=O)N4c2ccc(Oc3ccccc3)c(Br)c2)ccc1CN1CCOCC1` [Cpd 189, 5-(3-bromo-4-phenoxy-phenyl)-4-oxo-4,5-dihydro-3H-1-thia-3,5,6,8-tetraaza-acenaphthylene-2-carboxylic acid (3-methoxy-4-morpholin-4-ylmethyl-phenyl)-amide], for which the half-maximal inhibitory concentration (IC50) was 72 nM at HER-2 and 83 nM on EGFR.
Take `COc1ccc(N2C(=O)Nc3c(C(=O)Nc4ccc(CN5CCOCC5)c(OC)c4)sc4ncnc2c34)cc1Br` [Cpd 183, 5-(3-bromo-4-methoxy-phenyl)-4-oxo-4,5-dihydro-3H-1-thia-3,5,6,8-tetraaza-acenaphthylene-2-carboxylic acid (3-methoxy-4-morpholin-4-ylmethyl-phenyl)-amide]: the values for the IC50 on HER-2 and at EGFR were 980 nM and 420 nM, respectively.
With `COc1ccc(N2C(=O)Nc3c(C(=O)Nc4ccc(CN5CCCCC5)cc4)sc4ncnc2c34)c(F)c1` [Cpd 66, 5-(2-fluoro-4-methoxy-phenyl)-4-oxo-4,5-dihydro-3H-1-thia-3,5,6,8-tetraaza-acenaphthylene-2-carboxylic acid (4-piperidin-1-ylmethyl-phenyl)-amide], the inhibition at 1 µM on HER-2 stood at 11%. Further, on EGFR, the IC50 was 524 nM.
On to `O=C(Nc1ccc(CN2CCCCC2)cc1)c1sc2ncnc3c2c1NC(=O)N3c1ccc(OCc2ccco2)c(Cl)c1` [Cpd 244, 5-[3-chloro-4-(furan-2-ylmethoxy)-phenyl]-4-oxo-4,5-dihydro-3H-1-thia-3,5,6,8-tetraaza-acenaphthylene-2-carboxylic acid (4-piperidin-1-ylmethyl-phenyl)-amide], for which the IC50 on HER-2 worked out at 85 nM; at EGFR, 23 nM.
Consider `COc1cc(NC(=O)c2sc3ncnc4c3c2NC(=O)N4c2cc(Cl)ccc2OC)ccc1OCCN1CCCCC1` [Cpd 74, 5-(5-chloro-2-methoxy-phenyl)-4-oxo-4,5-dihydro-3H-1-thia-3,5,6,8-tetraaza-acenaphthylene-2-carboxylic acid [3-methoxy-4-(2-piperidin-1-yl-ethoxy)-phenyl]-amide], for which, on HER-2, the inhibition at 1 µM was 4%. Moreover, the inhibition at 2 µM on EGFR stood at 56%.
